According to US12570957B2, “Isolated naive pluripotent stem cells and methods of generating same” (Yeda Research and Development Co. Ltd., priority 2013, dated 2026):

How the values were obtained:
Test in all cases: Pluripotency maintenance after supplementation of inhibitors or growth factors
naive mESCs = type: cell-based, mouse; settings: mESCs in 2i/LIF
Description: (§1) Shown are histograms depicting colony formation of pluripotent cell lines in various media. Cell populations were equally divided and plated on gelatin/vitronectin coated plates in the indicated growth medium in which these cell lines are normally maintained (mouse naive cells in a medium containing 2i/LIF, naive hESCs/iPSCs in a WIS-NHSM medium, mouse EpiSCs and human primed ESCS/iPSCs in a KSR/bFGF/TGFβmedium). 36 hours later the wells were supplemented with the indicated inhibitors or growth factors. After 14 days (2 passages), wells were analyzed for Oct4-GFP pluripotency marker expression by FACS, to determine the relative percentage of pluripotent colonies. Pluripotent cell frequency was normalized to an internal control, as indicated by “Growth medium” only on the far left column (For naive cells growth medium was WIS-NHSM, and for primed cells was conventional KSR/bFGF/TGFβcontaining medium as specified in methods). […]
(§2) FIGS. 108A-108C—Signaling and functional characteristics of human naive pluripotency. […] After 14 days (2 passages), wells were analyzed by OCT4 immunostaining of direct detection of OCT4-GFP pluripotency reporter expression, to determine the relative percentage of undifferentiated pluripotent cells. […] After 20 days, colonies positive for OCT4 pluripotency markers were counted and normalized to colonies from cells electroporated with empty vector. […]

primed hESCs/hiPSCs = type: cell-based; settings: primed human cells
Description: as §1, §2

naive hESCs/hiPSCs = type: cell-based; settings: naive human cells in WIS-NHSM
Description: as §1, §2

Structure (SMILES): CC(C)(C)c1nc2c3ccc(F)cc3c3c(=O)[nH]ccc3c2[nH]1 [JAKi]
- response of pluripotent state (naive mESCs): readily differentiate
- response of pluripotent state (primed hESCs/hiPSCs): resistant
- response of pluripotent state (naive hESCs/hiPSCs): differentiated
